# Experimental data taken from publication PMC9185314 (RSC Advances, 2022).
# Target: Jack bean urease (Canavalia ensiformis, UniProt P07374)
# Assay: urease inhibition assay, indophenol
# Type: biochemical
# Chain of Jack bean urease (P07374 whole entry, looked up): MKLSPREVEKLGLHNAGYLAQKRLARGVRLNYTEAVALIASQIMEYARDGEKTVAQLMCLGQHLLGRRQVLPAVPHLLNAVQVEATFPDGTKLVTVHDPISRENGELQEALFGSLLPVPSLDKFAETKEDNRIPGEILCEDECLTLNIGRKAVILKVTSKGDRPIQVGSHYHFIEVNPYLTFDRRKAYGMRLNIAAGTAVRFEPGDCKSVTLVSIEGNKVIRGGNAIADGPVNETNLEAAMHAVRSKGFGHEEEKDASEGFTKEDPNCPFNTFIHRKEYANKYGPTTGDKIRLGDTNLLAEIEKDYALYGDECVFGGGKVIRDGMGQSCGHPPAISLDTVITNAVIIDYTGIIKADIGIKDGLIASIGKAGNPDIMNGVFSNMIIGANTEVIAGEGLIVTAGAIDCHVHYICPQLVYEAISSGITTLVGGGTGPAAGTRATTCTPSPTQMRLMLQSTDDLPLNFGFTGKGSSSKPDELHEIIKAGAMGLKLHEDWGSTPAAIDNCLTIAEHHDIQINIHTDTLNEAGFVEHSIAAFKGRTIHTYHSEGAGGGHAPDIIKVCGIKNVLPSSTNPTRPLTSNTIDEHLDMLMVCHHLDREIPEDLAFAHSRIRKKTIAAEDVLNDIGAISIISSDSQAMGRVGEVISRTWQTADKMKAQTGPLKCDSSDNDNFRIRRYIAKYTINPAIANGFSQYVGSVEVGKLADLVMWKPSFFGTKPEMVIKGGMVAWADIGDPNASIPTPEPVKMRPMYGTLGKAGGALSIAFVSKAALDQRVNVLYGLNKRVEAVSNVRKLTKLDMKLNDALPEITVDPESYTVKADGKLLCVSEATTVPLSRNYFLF
structure (smiles),measurement,value
"CC(=O)c1ccc(NC(=S)NC(=O)c2ccc(Cl)cc2Cl)cc1 [compound 4, N-((4-Acetylphenyl)carbamothioyl)-2,4-dichlorobenzamide]",IC50,38.9 ± 1.7 nM
